According to patent publication US20250333441A1, “POLYPEPTIDE INHIBITORS AND USES THEREOF” (Neuracle Science Co., Ltd., priority 2021, published 2025):
Where no end group is shown, it is not given here. [ ]: non-standard residue; d: D form.

System: mouse hippocampal neurons treated with toxic amyloid beta oligomer
Assay: Amyloid beta-induced synapse loss in primary hippocampal neurons
Format: cell-based
Details: 6.6 nM; co-treated with toxic amyloid beta oligomer; 21 DIV
Procedure: Alzheimer's disease (AD) is tightly associated with the dysmetabolism of amyloid-R (A3). To begin assessing whether the polypeptides provided herein (i.e., comprising the FAM19A5 binding domain of LRRC4 protein family members) could have any therapeutic effects on AD, the effect of various FB-21 peptide fragments described herein on the deformation of synapse induced by toxic A3 oligomer and following structural recovery was assessed. Specifically, the following FB-21 peptide fragments were tested: FB-21, FB-JM-31 and FB-BBB-39 (see Example 10).
Aβ42 (#20276) peptide was purchased from AnaSpec (Fremont, USA). […]
Hippocampal neurons were treated with 6.6 nM FB-21, 6.6 nM of FB-13-JM and 6.6 nM of FB-13-BBBX2 at 14, 17 and 20 DIV to determine the level of synaptogenesis at 21 DIV by immunostaining SYP, a presynapse marker protein and PSD95, a postsynapse marker protein. To quantify fluorescence intensity for SYN and PSD95 and number of colocalized voxels between SYN and PSD95 signals, z-stack confocal images of 3 m in depth were converted to 3D images using IMARIS software (IMARIS9.0, Bitplane AG, Zurich, Switzerland). The “Surface tool” of the IMARIS software was used to exclude all the signals detected in neuronal cell bodies, and number of colocalized voxels between SYN and PSD95 signals in neurites were calculated using the “Coloc tool”. […]

nYTYFTTVTVETLETQPGEEALDEVMKTTKa ([dN]YTYFTTVTVETLETQPGEEALDEVMKTTK[dA]; also: terminal modifications) [dFB-JM-31]
colocalized voxels for PSD95 and synaptophysin: significant increase
